The source of these data is ChEMBL document CHEMBL1130893, “Inhibition of HIV integrase by novel nucleotides bearing tricyclic bases” (Bioorg Med Chem Lett, 1998).

The structures appear in SMILES notation.

For assay [1], the target named is T1, Human immunodeficiency virus type 1 integrase (Human immunodeficiency virus 1, UniProt Q7ZJM1). The assay is described as follows: Inhibitory activity against HIV integrase in the strand transfer step.
The target of assay [2] is T1, Human immunodeficiency virus type 1 integrase. The assay is described as follows: Inhibitory activity against HIV integrase in the 3' processing step.

T1 sequence (Q7ZJM1 whole entry): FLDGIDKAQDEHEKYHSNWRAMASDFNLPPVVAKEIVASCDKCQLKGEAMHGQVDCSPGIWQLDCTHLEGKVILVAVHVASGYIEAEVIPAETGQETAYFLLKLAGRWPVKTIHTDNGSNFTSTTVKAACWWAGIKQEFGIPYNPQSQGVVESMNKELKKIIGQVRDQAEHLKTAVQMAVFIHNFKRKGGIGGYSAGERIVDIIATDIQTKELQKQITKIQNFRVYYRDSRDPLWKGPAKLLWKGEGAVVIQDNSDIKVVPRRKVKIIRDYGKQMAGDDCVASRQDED

As a reminder, the IC50 is the midpoint of a concentration-inhibition curve. A low value points to inhibition by little substance. In turn, `Nc1ncnc2cc3c(cc12)ncn3C1COC(COP(=O)(O)O)C1` (stereo not given) came in with a concentration for half-maximal inhibition (IC50) in assay [1] of 68 µM.

In the case of `Nc1ncnc2cc3c(cc12)ncn3C1CCC(COP(=O)(O)O)O1` (stereo not given), the IC50 in assay [2] was determined as 750 µM; in assay [1], 550 µM.

`Nc1ncnc2c1ccc1ncn(C3COC(COP(=O)(O)O)C3)c12` (stereo not given): the IC50 in assay [2] worked out at 75 µM; in assay [1], 53 µM.
